Experiments:
thrombin = thrombin (Homo sapiens, UniProt P00734); assay: Thrombin activity, chromogenic substrate S-2238 (IC50); type: biochemical
Procedure: Thrombin activity was measured using a chromogenic substrate S-2238 (Quadratec). […] Kinetic readings at 405 nm were monitored every 12 seconds for a total duration of 3 hours at 37° C. Gradients of initial rates were determined and employed to calculate IC50 values using Grafit software.

[1] = test system: human normal pool platelet poor plasma; assay: Activated Partial Thromboplastin Time (aPTT) clotting assay; type: biochemical; conditions: for Mean aPTT: platelet poor plasma, mean ± SEM
Procedure: The activated Partial Thromboplastin Time (aPTT) employed was the PTT Automate 5 reagent kit from Stago. The coagulometer (Start 4, Diagnostica Stago, Asnieres sur Seine Cedex, France) was preheated to 37° C. prior to starting any measurements. A sample of human normal pool platelet poor plasma (n=22) was defrosted at 37° C. from −80° C. […] Then 48.5 μL of PTT automate was added to the cuvette and left to incubate for 180 seconds at 37° C. in the coagulometer, after which 50 μL of 25 mM calcium chloride was immediately added to initiate clotting. At the end of the test, the time clotting times were recorded.
This method is known to the person skilled in the art.

[2] = test system: murine tail bleeding model; assay: Murine tail bleeding time; type: in vivo, C57BL/6 male mice
Description: The same animals employed for anticoagulant efficacy were subjected to tail bleeding immediately following the end of the efficacy experiments. Tails were cut with a scalpel at 2 mm diameter using a home-made device for measuring tail diameter. The tails were immediately suspended into lml warmed saline and the time taken to cessation of bleeding monitored (panel A). The collected saline/blood mix at the end of the experiments were frozen and subjected to haemoglobin determination (panel B).
The same animals employed for anticoagulant efficacy were subjected to tail bleeding immediately following the end of the efficacy experiments. Tails were cut with a scalpel at 2 mm diameter using a home-made device for measuring tail diameter. The tails were immediately suspended into 1 ml warmed saline and the time taken to cessation of bleeding monitored.

Compound	IC50 (thrombin) [µM]	Mean aPTT ([1]; 0.11 nM, 3 min incubation) [s]	Mean aPTT ([1]; 0.44 nM) [s]	Mean aPTT ([1]; 0.88 nM) [s]	Mean aPTT ([1]; 1.75 nM) [s]	Mean aPTT ([1]; 3.50 nM) [s]	Mean aPTT ([1]; 7.00 nM) [s]	Mean aPTT ([1]; 14.00 nM) [s]	Mean aPTT ([1]; 28.00 nM) [s]	Mean aPTT ([1]; 56.00 nM) [s]	Mean aPTT ([1]; 112.00 nM) [s]	Mean aPTT ([1]; 224.00 nM) [s]	Mean aPTT ([1]; 448.00 nM) [s]	potency in aPTT, comparison ([1]; in plasma)	prolongation of bleeding time ([2]; 20 mg/kg, at the end of the experiment) [fold]	risk of bleeding ([2]; at doses achieving 50% inhibition of fibrin clot formation)	prolongation of bleeding time ([2]; at the dose required to achieve at least 50% inhibition of fibrin clot formation) [fold]
CC[C@H](C)[C@H](NC(=O)[C@H](C)NC(=O)[C@H](CCC(=O)O)NC(=O)[C@H](Cc1ccccc1)NC(=O)[C@H](CC(=O)O)NC(=O)[C@H](Cc1ccccc1)NC(=O)[C@@H]1CCCN1C(=O)[C@@H]1CCCN1C(=O)[C@H](C)NC(=O)[C@@H](NC(=O)[C@H](CCCCN)NC(=O)[C@H](Cc1c[nH]cn1)NC(=O)[C@H](CCSC)NC(=O)[C@H](CCCNC(=N)N)NC(=O)[C@@H]1CCCN1C(=O)[C@H](CCC(=O)O)NC(=O)[C@H](C)NC(=O)[C@@H](NC(=O)[C@@H](N)CC(=O)O)C(C)C)[C@@H](C)O)C(=O)N1CCC[C@H]1C(=O)N[C@@H](CCC(=O)O)C(=O)N[C@@H](CCC(=O)O)C(=O)N[C@@H](Cc1ccc(O)cc1)C(=O)N[C@@H](Cc1ccc(OS(=O)(=O)O)cc1)C(=O)N[C@@H](CC(C)C)C(=O)O [SYM-3491-SO3]	0.172 ± 0.0065	32.03 ± 0.07	32.07 ± 0.03	31.83 ± 0.03	32.20 ± 0.15	32.33 ± 0.07	33.27 ± 0.27	35.33 ± 0.33	38.23 ± 0.48	44.17 ± 0.43	49.87 ± 0.20	60.33 ± 0.17	70.97 ± 0.69	slightly less than variegin	~2	increases risk of bleeding	~2
bivalirudin [reference compound]		32.03 ± 0.35	31.07 ± 0.09	31.20 ± 0.06	31.47 ± 0.37	32.43 ± 0.13	36.30 ± 0.20	40.27 ± 0.60	46.13 ± 1.25	53.97 ± 0.26	63.43 ± 2.32	79.50 ± 0.75	89.77 ± 3.99				

From patent US20170035863A1 (UNIVERSITY OF LEEDS, priority 2014, published 2017)
